The values below come from patent US5643870A, “O-acylated cyclosporins” (Sandoz Ltd., priority 1992, dated 1997).

Each structure is given as a SMILES string. Converted amounts (≈) assume the structure as drawn.

The test system of experiment [1] is plaque forming, i.e. antibody producing, cells (lymphocytes from the spleen of OFI mice co-cultured with sheep erythrocytes). Format: cell-based. The note with it: 3 days co-culture with sheep erythrocytes. Here is the method:
Ca. 10^7 lymphocytes from the spleen of OFI, female mice are co-cultured with ca. 3×10^7 sheep erythrocytes for 3 days. Test substance is added to the incubation medium in varying concentrations. Lymphocytes are harvested and plated onto agar with fresh sheep erythrocytes as antigen. Sensitised lymphocytes secrete antibody that coats the erythrocytes, which lyse to form a plaque in the presence of complement. Activity is assessed by reduction in the number of plaque forming, i.e. antibody producing, cells. Cyclosporins in accordance with the present invention reduce the numbers of plaque forming cells at concentrations of the order of from 0.03 to 0.05 μg/ml.

Experiment [2] has as its system lymphocytes from the spleen of Balb/c mice incubated with lymphocytes from the spleen of CBA mice.
Description: 0.5×10^6 lymphocytes from the spleen of female (8-10 weeks) Balb/c mice are incubated for 5 days in 0.2 ml cell growth medium with ca. 0.5×10^6 lymphocytes from the spleen of female (8-10 weeks) CBA mice. Test substance is added to the medium at various concentrations. Activity is assessed by ability to suppress proliferation associated DNA synthesis as determined by incorporation of radiolabelled thymidine.

On to `CC[C@@H]1NC(=O)[C@H]([C@H](O)[C@H](C)C/C=C/COC(=O)OC)N(C)C(=O)[C@H](C(C)C)N(C)C(=O)[C@H](CC(C)C)N(C)C(=O)[C@H](CC(C)C)N(C)C(=O)[C@@H](C)NC(=O)[C@H](C)NC(=O)[C@H](CC(C)C)N(C)C(=O)[C@H](C(C)C)NC(=O)[C@H](CC(C)C)N(C)C(=O)CN(C)C1=O` [Example 1, [(8'-Methoxycarbonyloxy)MeBmt]^1 -Ciclosporin], for which the “IC50, test 1.2 Mishell-Dutton test (number of plaque forming cells)” value in experiment [1] came to 0.043 µg/mL. Moreover, in experiment [2], the “IC50, test 1.1 murine mixed lymphocyte reaction (thymidine incorporation)” value came to 0.015 µg/mL (≈ 0.0117 µM).
